This note sets out measurements from patent US8618151B2, “Inhibitors of HCV NS5A” (Presidio Pharmaceuticals, Inc., priority 2008, dated 2013).

This test has as its system HCV genotype 1b replicon. Nature of the test: HCV replicon assay (1b_Huh-Luc/Neo-ET cell line, luciferase readout). The format is cell-based. Conditions: Hepatitis C virus, Huh-7, 72 h, read-out: Inhibition of HCV genotype 1b. On the procedure: Biological activity of the compounds of the invention was determined using an HCV replicon assay. The 1b_Huh-Luc/Neo-ET cell line persistently expressing a bicistronic genotype 1b replicon in Huh 7 cells was obtained from ReBLikon GMBH. This cell line was used to test compound inhibition using luciferase enzyme activity readout as a measurement of compound inhibition of replicon levels.
On Day 1 (the day after plating), each compound is added in triplicate to the cells. Plates incubated for 72 h prior to running the luciferase assay. Enzyme activity was measured using a Bright-Glo Kit (cat. number E2620) manufactured by Promega Corporation. The following equation was used to generate a percent control value for each compound. % Control=(Average Compound Value/Average Control)*100
The EC50 value was determined using GraphPad Prism and the following equation: Y=Bottom+(Top−Bottom)/1+10^((Log IC50−X)*HillSlope))
EC50 values of compounds are repeated several times in the replicon assay.
For the compound `COC(=O)N[C@H](C(=O)N1CCC[C@H]1c1nc(-c2ccc3[nH]c(-c4ccc(-c5cnc([C@@H]6CCCN6C(=O)[C@@H](NC(=O)OC)C(C)C)[nH]5)cc4)cc(=O)c3c2)c[nH]1)C(C)C` [compound 76], the EC50 is less than 1 nM.
As to `COC(=O)N[C@@H](C(=O)N1CCC[C@H]1c1nc(-c2ccc3[nH]c(-c4ccc(-c5cnc([C@@H]6CCCN6C(=O)[C@H](NC(=O)OC)c6ccccc6)[nH]5)cc4)cc(=O)c3c2)c[nH]1)c1ccccc1` [compound 77], the EC50 lay in the range of 10 to 999 nM.
The same measure for `COC(=O)N[C@@H](C(=O)N1CCC[C@H]1c1nc(-c2ccc3nc(-c4ccc(-c5cnc([C@@H]6CCCN6C(=O)[C@H](NC(=O)OC)c6ccccc6)[nH]5)cc4)cc(OC)c3c2)c[nH]1)c1ccccc1` [compound 78]: less than 1 nM; for `COC(=O)N[C@H](C(=O)N1CCC[C@H]1c1nc(-c2ccc3nc(-c4ccc(-c5cnc([C@@H]6CCCN6C(=O)[C@@H](NC(=O)OC)C(C)C)[nH]5)cc4)cc(OC)c3c2)c[nH]1)C(C)C` [compound 79]: less than 1 nM.
Then `COC(=O)N[C@@H](C(=O)N1CCC[C@H]1c1nc(-c2cnc3cc(-c4ccc(-c5cnc([C@@H]6CCCN6C(=O)[C@H](NC(=O)OC)c6ccccc6)[nH]5)cn4)ccc3c2)c[nH]1)c1ccccc1` [compound 80], with less than 1 nM; and `COC(=O)N[C@H](C(=O)N1CCC[C@H]1c1ncc(-c2ccc(-c3ccc4cc(-c5c[nH]c([C@@H]6CCCN6C(=O)[C@H](NC(=O)OC6CCOCC6)c6ccccc6)n5)cnc4c3)nc2)[nH]1)C(C)C` [compound 81], with less than 1 nM; and `COC(=O)N[C@H](C(=O)N1CCC[C@H]1c1ncc(-c2ccc(-c3ccc4cc(-c5c[nH]c([C@@H]6CCCN6C(=O)[C@H](NC(=O)OC(C)(C)C)c6ccccc6)n5)cnc4c3)nc2)[nH]1)C(C)C` [compound 82], with less than 1 nM.
For `COC(=O)N[C@H](C(=O)N1CCC[C@H]1c1nc(-c2ccc3cc(-c4ccc(-c5cnc([C@@H]6CCCN6C(=O)[C@@H](NC(=O)OC)C(C)C)[nH]5)nc4)ccc3c2)c[nH]1)C(C)C` [compound 83], the EC50 is less than 1 nM.
Then `COC(=O)N[C@H](C(=O)N1CCC[C@H]1c1nc(-c2ccc3cc(-c4ccc(-c5cnc([C@@H]6CCCN6C(=O)[C@@H](NC(=O)OC)C6CCOCC6)[nH]5)nc4)ccc3c2)c[nH]1)C(C)C` [compound 84], with less than 1 nM.
Then `COC(=O)N[C@H](C(=O)N1CCC[C@H]1c1nc(-c2ccc3cc(-c4ccc(-c5cnc([C@@H]6CCCN6C(=O)[C@@H](NC(=O)OC)C(C)C)[nH]5)cc4C)ccc3c2)c[nH]1)C(C)C` [compound 85], with less than 1 nM.
Then `COC(=O)N[C@H](C(=O)N1CCC[C@H]1c1nc(-c2ccc3cc(-c4ccc(-c5cnc([C@@H]6CCCN6C(=O)[C@@H](NC(=O)OC)C6CCOCC6)[nH]5)cc4C)ccc3c2)c[nH]1)C(C)C` [compound 86], with less than 1 nM; and `COC(=O)N[C@H](C(=O)N1CCC[C@H]1c1ncc(-c2ccc(-c3ccc4cc(-c5c[nH]c([C@@H]6CCCN6C(=O)[C@H](NC(=O)OC)c6ccccc6)n5)ccc4c3)c(C)c2)[nH]1)C(C)C` [compound 87], with less than 1 nM.
Take `COC(=O)N[C@H](C(=O)N1CCC[C@H]1c1nc(-c2cnc3cc(-c4ccc(-c5cnc([C@@H]6CCCN6C(=O)[C@H](NC(=O)OC6CCOCC6)c6ccccc6)[nH]5)cc4)ccc3c2)c[nH]1)C(C)C` [compound 88]: the EC50 is less than 1 nM.
The same measure for `COC(=O)N[C@H](C(=O)N1CCC[C@H]1c1nc(-c2cnc3cc(-c4ccc(-c5cnc([C@@H]6CCCN6C(=O)[C@H](NC(=O)OC6CCOCC6)c6ccccc6)[nH]5)cc4)ccc3c2)c[nH]1)C1CCOCC1` [compound 89]: less than 1 nM; for `COC(=O)N[C@H](C(=O)N1CCC[C@H]1c1ncc(-c2ccc(-c3ccc4cc(-c5c[nH]c([C@@H]6CCCN6C(=O)[C@H](NC(=O)OC)c6ccccc6)n5)ccc4n3)cc2)[nH]1)C1CCOCC1` [compound 90]: less than 1 nM.
The same measure for `COC(=O)N[C@H](C(=O)N1CCC[C@H]1c1ncc(-c2ccc(-c3ccc4cc(-c5c[nH]c([C@@H]6CCCN6C(=O)[C@H](NC(=O)OC(C)(C)C)c6ccccc6)n5)ccc4n3)cc2)[nH]1)C1CCOCC1` [compound 91]: less than 1 nM; for `COC(=O)N[C@H](C(=O)N1CCC[C@H]1c1ncc(-c2ccc(-c3ccc4cc(-c5c[nH]c([C@@H]6CCCN6C(=O)[C@H](NC(=O)OC6CCOCC6)c6ccccc6)n5)ccc4n3)cc2)[nH]1)C1CCOCC1` [compound 92]: less than 1 nM; for `COC(=O)N[C@H](C(=O)N1CCC[C@H]1c1nc(-c2cnc3cc(-c4ccc(-c5cnc([C@@H]6CCCN6C(=O)[C@@H](NC(=O)OC)C(C)C)[nH]5)nc4)ccc3c2)c[nH]1)C(C)C` [compound 93]: less than 1 nM.
Then `COC(=O)N[C@H](C(=O)N1CCC[C@H]1c1ncc(-c2ccc(-c3ccc4cc(-c5c[nH]c([C@@H]6CCCN6C(=O)[C@H](NC(=O)OC)c6ccccc6)n5)cnc4c3)cn2)[nH]1)C(C)C` [compound 94], with less than 1 nM.
In the case of `COC(=O)N[C@H](C(=O)N1CCC[C@H]1c1ncc(-c2ccc(-c3ccc4cc(-c5c[nH]c([C@@H]6CCCN6C(=O)[C@@H](NC(=O)OC)C6CCOCC6)n5)cnc4c3)cn2)[nH]1)C(C)C` [compound 95], the EC50 is less than 1 nM.
Turning to `COC(=O)N[C@H](C(=O)N1CCC[C@H]1c1nc(-c2ccc3nc(-c4ccc(-c5cnc([C@@H]6CCCN6C(=O)[C@@H](NC(=O)OC)C(C)C)[nH]5)cc4F)ccc3c2)c[nH]1)C(C)C` [compound 96], the EC50 was less than 1 nM.
Then `COC(=O)N[C@@H](C(=O)N1CCC[C@H]1c1nc(-c2ccc3nc(-c4ccc(-c5cnc([C@@H]6CCCN6C(=O)[C@H](NC(=O)OC)c6ccccc6)[nH]5)cc4F)ccc3c2)c[nH]1)c1ccccc1` [compound 97], with less than 1 nM.
Turning to `COC(=O)N[C@H](C(=O)N1CCC[C@H]1c1nc(-c2ccc3nc(-c4ccc(-c5cnc([C@@H]6CCCN6C(=O)[C@@H](NC(=O)OC)C6CCOCC6)[nH]5)cc4F)ccc3c2)c[nH]1)C1CCOCC1` [compound 98], the EC50 was less than 1 nM.
Then `COC(=O)N[C@H](C(=O)N1CCC[C@H]1c1nc(-c2ccc3cc(-c4ccc(-c5cnc([C@@H]6CCCN6C(=O)[C@H](NC(=O)OC)c6ccccc6)[nH]5)cc4)ccc3c2)c[nH]1)C1CCOCC1` [compound 99], with less than 1 nM; and `COC(=O)N[C@H](C(=O)N1CCC[C@H]1c1nc(-c2ccc3cc(-c4ccc(-c5cnc([C@@H]6CCCN6C(=O)[C@H](NC(=O)OC)c6ccccc6)[nH]5)cc4)ncc3c2)c[nH]1)C1CCOCC1` [compound 100], with less than 1 nM; and `COC(=O)N[C@H](C(=O)N1CCC[C@H]1c1ncc(-c2ccc(-c3cc4ccc(-c5c[nH]c([C@@H]6CCCN6C(=O)[C@H](NC(=O)OC)c6ccccc6)n5)cc4cn3)cc2)[nH]1)C1CCOCC1` [compound 101], with less than 1 nM.
Regarding `COC(=O)N[C@H](C(=O)N1CCC[C@H]1c1nc(-c2ccc3cc(-c4ccc(-c5cnc([C@@H]6CCCN6C(=O)[C@@H](NC(=O)OC)C(C)C)[nH]5)cc4)ccc3n2)c[nH]1)C(C)C` [compound 102], the EC50 was less than 1 nM.
Turning to `COC(=O)N[C@H](C(=O)N1CCC[C@H]1c1ncc(-c2ccc(-c3ccc4nc(-c5c[nH]c([C@@H]6CCCN6C(=O)[C@H](NC(=O)OC)c6ccccc6)n5)ccc4c3)cc2)[nH]1)C(C)C` [compound 103], the EC50 is less than 1 nM.
The same measure for `COC(=O)N[C@H](C(=O)N1CCC[C@H]1c1ncc(-c2ccc(-c3ccc4cc(-c5c[nH]c([C@@H]6CCCN6C(=O)[C@@H](NC(=O)OC)C6CCOCC6)n5)ccc4c3)c(C)c2)[nH]1)C(C)C` [compound 104]: less than 1 nM; for `COC(=O)N[C@H](C(=O)N1CCC[C@H]1c1ncc(-c2ccc(-c3ccc4cc(-c5c[nH]c([C@@H]6CCCN6C(=O)[C@H](NC(=O)OC)c6ccccc6)n5)ccc4c3)cc2)[nH]1)C1CCOCC1` [compound 105]: less than 1 nM; for `COC(=O)N[C@H](C(=O)N1CCC[C@H]1c1ncc(-c2ccc(-c3ccc4cc(-c5c[nH]c([C@@H]6CCCN6C(=O)[C@H](NC(=O)OC)c6ccccc6)n5)ccc4c3)c(F)c2)[nH]1)C1CCOCC1` [compound 106]: less than 1 nM.
The same measure for `COC(=O)N[C@H](C(=O)N1CCC[C@H]1c1nc(-c2ccc3nc(-c4ccc(-c5cnc([C@@H]6CCCN6C(=O)[C@H](NC(=O)OC)c6ccccc6)[nH]5)cc4F)ccc3c2)c[nH]1)C(C)C` [compound 107]: less than 1 nM.
As for `COC(=O)N[C@H](C(=O)N1CCC[C@H]1c1nc(-c2ccc3nc(-c4ccc(-c5cnc([C@@H]6CCCN6C(=O)[C@@H](NC(=O)OC)C6CCOCC6)[nH]5)c(F)c4)ccc3c2)c[nH]1)C1CCOCC1` [compound 108], the EC50 was less than 1 nM.
Then `COC(=O)N[C@@H](C(=O)N1CCC[C@H]1c1nc(-c2ccc3nc(-c4ccc(-c5cnc([C@@H]6CCCN6C(=O)[C@H](NC(=O)OC)c6ccccc6)[nH]5)c(F)c4)ccc3c2)c[nH]1)c1ccccc1` [compound 109], with less than 1 nM; and `COC(=O)N[C@H](C(=O)N1CCC[C@H]1c1nc(-c2ccc3cc(-c4ccc(-c5cnc([C@@H]6CCCN6C(=O)[C@H](NC(=O)OC)c6ccsc6)[nH]5)cc4)ccc3c2)c[nH]1)C1CCOCC1` [compound 110], with less than 1 nM.
As to `COC(=O)N[C@H](C(=O)N1CCC[C@H]1c1nc(-c2ccc3cc(-c4ccc(-c5cnc([C@@H]6CCCN6C(=O)[C@H](NC(=O)OC)c6ccc(F)cc6)[nH]5)cc4)ccc3c2)c[nH]1)C1CCOCC1` [compound 111], the EC50 is less than 1 nM.
Then `COC(=O)N[C@H](C(=O)N1CCC[C@H]1c1nc(-c2ccc3cc(-c4ccc(-c5cnc([C@@H]6CCCN6C(=O)[C@@H](NC(=O)OC6CCOCC6)c6ccccc6)[nH]5)cc4)ccc3c2)c[nH]1)C1CCOCC1` [compound 112], with less than 1 nM.
